Experimental data from ChEMBL document CHEMBL4828725 (Eur J Med Chem, 2021).

What was measured:
[1] = target: Beta-glucuronidase (Escherichia coli (strain K12), UniProt P05804); assay: Inhibition of Escherichia coli beta-glucuronidase using p-nitrophenyl glycoside as substrate assessed as release of p-nitrophenol measured by spectrometric assay
[2] = system: Prunus dulcis; assay: Inhibition of almond beta-glucosidase using p-nitrophenyl glycoside as substrate assessed as release of p-nitrophenol at 1000 uM measured by spectrometric assay relative to control
[3] = target: T1, Tissue alpha-L-fucosidase (Bos taurus, UniProt Q2KIM0); assay: Inhibition of bovine kidney alpha-L-fucosidase using p-nitrophenyl glycoside as substrate assessed as release of p-nitrophenol measured by spectrometric assay
T1 sequence (Q2KIM0 whole entry): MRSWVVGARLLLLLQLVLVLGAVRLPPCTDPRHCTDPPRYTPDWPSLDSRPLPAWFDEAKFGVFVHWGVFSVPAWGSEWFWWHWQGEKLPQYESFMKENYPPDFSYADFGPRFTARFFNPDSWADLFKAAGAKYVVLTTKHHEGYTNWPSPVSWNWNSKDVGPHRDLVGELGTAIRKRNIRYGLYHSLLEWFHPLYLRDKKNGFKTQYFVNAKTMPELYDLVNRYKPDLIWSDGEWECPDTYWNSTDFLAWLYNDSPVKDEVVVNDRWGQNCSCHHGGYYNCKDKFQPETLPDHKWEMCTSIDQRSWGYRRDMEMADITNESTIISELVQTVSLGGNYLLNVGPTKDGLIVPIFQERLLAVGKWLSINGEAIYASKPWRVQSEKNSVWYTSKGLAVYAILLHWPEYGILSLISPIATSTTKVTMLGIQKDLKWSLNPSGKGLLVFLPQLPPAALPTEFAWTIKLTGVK

[4] = Inhibition of beta-glucosidase (unknown origin); parameters: species or system Homo sapiens
[5] = target: T2, Tissue alpha-L-fucosidase (Bos taurus) (UniProt Q2KIM0); assay: Inhibition of bovine kidney alpha-L-fucosidase using p-nitrophenyl glycoside as substrate assessed as release of p-nitrophenol at 1000 uM measured by spectrometric assay relative to control; format: tissue-based
T2 sequence (whole entry): T1 sequence (Q2KIM0 whole entry)

[6] = Inhibition of bovine liver beta-glucosidase using p-nitrophenyl glycoside as substrate assessed as release of p-nitrophenol measured by spectrometric assay; parameters: species or system Bos taurus
[7] = target: Alpha-galactosidase (Coffea arabica, UniProt Q42656); assay: Inhibition of coffee beans alpha-galactosidase using p-nitrophenyl glycoside as substrate assessed as release of p-nitrophenol measured by spectrometric assay
[8] = Inhibition of almond beta-glucosidase using p-nitrophenyl glycoside as substrate assessed as release of p-nitrophenol measured by spectrometric assay; parameters: species or system Prunus dulcis
[9] = organism: Bos taurus; assay: Inhibition of bovine liver beta-galactosidase using p-nitrophenyl glycoside as substrate assessed as release of p-nitrophenol at 1000 uM measured by spectrometric assay relative to control
[10] = Inhibition of rice alpha-glucosidase using p-nitrophenyl glycoside as substrate assessed as release of p-nitrophenol measured by spectrometric assay; parameters: species or system Oryza sativa; conditions: read-out: IC50
[11] = organism: Bos taurus; assay: Inhibition of bovine liver beta-glucosidase using p-nitrophenyl glycoside as substrate assessed as release of p-nitrophenol at 1000 uM measured by spectrometric assay relative to control; format: tissue-based
[12] = system: Penicillium decumbens; assay: Inhibition of Penicillium decumbens alpha-L-rhamnosidase using p-nitrophenyl glycoside as substrate assessed as release of p-nitrophenol at 1000 uM measured by spectrometric assay relative to control
[13] = Inhibition of snail beta-mannosidase using p-nitrophenyl glycoside as substrate assessed as release of p-nitrophenol measured by spectrometric assay; parameters: species or system Helix pomatia
[14] = target: Beta-glucuronidase (Escherichia coli (strain K12)) (UniProt P05804); assay: Inhibition of Escherichia coli beta-glucuronidase using p-nitrophenyl glycoside as substrate assessed as release of p-nitrophenol at 1000 uM measured by spectrometric assay relative to control
[15] = target: Alpha-galactosidase (Coffea arabica) (UniProt Q42656); assay: Inhibition of coffee beans alpha-galactosidase using p-nitrophenyl glycoside as substrate assessed as release of p-nitrophenol at 1000 uM measured by spectrometric assay relative to control
[16] = system: Helix pomatia; assay: Inhibition of snail beta-mannosidase using p-nitrophenyl glycoside as substrate assessed as release of p-nitrophenol at 1000 uM measured by spectrometric assay relative to control
[17] = target: T3, Alpha-mannosidase (Canavalia ensiformis) (UniProt C0HJB3); assay: Inhibition of jack bean alpha-mannosidase using p-nitrophenyl glycoside as substrate assessed as release of p-nitrophenol at 1000 uM measured by spectrometric assay relative to control
T3 sequence (whole entry): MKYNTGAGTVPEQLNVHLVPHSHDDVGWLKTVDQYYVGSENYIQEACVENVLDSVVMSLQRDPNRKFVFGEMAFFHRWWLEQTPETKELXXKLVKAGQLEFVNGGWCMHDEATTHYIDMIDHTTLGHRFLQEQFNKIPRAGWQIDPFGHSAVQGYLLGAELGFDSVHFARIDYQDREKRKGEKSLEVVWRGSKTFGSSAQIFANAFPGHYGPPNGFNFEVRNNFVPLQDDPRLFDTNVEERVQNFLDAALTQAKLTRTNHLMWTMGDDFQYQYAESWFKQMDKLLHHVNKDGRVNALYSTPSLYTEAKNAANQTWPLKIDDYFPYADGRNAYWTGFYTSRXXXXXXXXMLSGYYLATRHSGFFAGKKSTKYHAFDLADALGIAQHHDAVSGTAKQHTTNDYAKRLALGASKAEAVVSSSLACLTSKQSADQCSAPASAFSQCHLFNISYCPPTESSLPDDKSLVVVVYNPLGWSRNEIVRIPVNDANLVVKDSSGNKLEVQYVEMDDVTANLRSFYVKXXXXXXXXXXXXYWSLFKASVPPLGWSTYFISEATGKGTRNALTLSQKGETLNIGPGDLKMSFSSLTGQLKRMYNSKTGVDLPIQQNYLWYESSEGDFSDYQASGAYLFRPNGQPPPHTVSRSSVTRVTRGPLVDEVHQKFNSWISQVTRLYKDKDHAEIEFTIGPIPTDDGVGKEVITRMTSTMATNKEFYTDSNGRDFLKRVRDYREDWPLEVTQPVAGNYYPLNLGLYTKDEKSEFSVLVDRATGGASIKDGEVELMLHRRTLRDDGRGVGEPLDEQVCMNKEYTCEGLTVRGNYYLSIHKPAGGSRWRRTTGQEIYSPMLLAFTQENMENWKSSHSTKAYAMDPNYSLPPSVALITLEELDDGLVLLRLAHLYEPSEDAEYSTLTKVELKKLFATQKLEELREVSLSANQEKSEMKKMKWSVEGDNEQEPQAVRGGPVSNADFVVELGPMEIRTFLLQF

[18] = Inhibition of rat intestinal maltase using maltose as substrate assessed as release of D-glucose measured by spectrometric assay
[19] = Inhibition of bovine liver beta-galactosidase using p-nitrophenyl glycoside as substrate assessed as release of p-nitrophenol measured by spectrometric assay; format: tissue-based, Bos taurus
[20] = Inhibition of Aspergillus niger amyloglucosidase using p-nitrophenyl glycoside as substrate assessed as release of p-nitrophenol measured by spectrometric assay
[21] = Inhibition of Penicillium decumbens alpha-L-rhamnosidase using p-nitrophenyl glycoside as substrate assessed as release of p-nitrophenol measured by spectrometric assay
[22] = Inhibition of porcine kidney alpha-trehalase using p-nitrophenyl glycoside as substrate assessed as release of p-nitrophenol measured by spectrometric assay; parameters: species or system Sus scrofa; conditions: read-out: IC50
[23] = Inhibition of jack bean alpha-mannosidase using p-nitrophenyl glycoside as substrate assessed as release of p-nitrophenol measured by spectrometric assay; parameters: species or system Canavalia ensiformis
[24] = target: T4, Sucrase-isomaltase, intestinal (Rattus norvegicus, UniProt P23739); assay: Inhibition of rat intestinal isomaltase using p-nitrophenyl glycoside as substrate assessed as release of p-nitrophenol measured by spectrometric assay; conditions: read-out: IC50
[25] = system: Aspergillus niger; assay: Inhibition of Aspergillus niger amyloglucosidase using p-nitrophenyl glycoside as substrate assessed as release of p-nitrophenol at 1000 uM measured by spectrometric assay relative to control
[26] = target: Maltase-glucoamylase (Homo sapiens, UniProt O43451); assay: Inhibition of human alpha-glucosidase
[27] = target: T4, Sucrase-isomaltase, intestinal; assay: Inhibition of rat intestinal sucrase using p-nitrophenyl glycoside as substrate assessed as release of p-nitrophenol measured by spectrometric assay; conditions: read-out: IC50

Sequence of Beta-glucuronidase (P05804 whole entry): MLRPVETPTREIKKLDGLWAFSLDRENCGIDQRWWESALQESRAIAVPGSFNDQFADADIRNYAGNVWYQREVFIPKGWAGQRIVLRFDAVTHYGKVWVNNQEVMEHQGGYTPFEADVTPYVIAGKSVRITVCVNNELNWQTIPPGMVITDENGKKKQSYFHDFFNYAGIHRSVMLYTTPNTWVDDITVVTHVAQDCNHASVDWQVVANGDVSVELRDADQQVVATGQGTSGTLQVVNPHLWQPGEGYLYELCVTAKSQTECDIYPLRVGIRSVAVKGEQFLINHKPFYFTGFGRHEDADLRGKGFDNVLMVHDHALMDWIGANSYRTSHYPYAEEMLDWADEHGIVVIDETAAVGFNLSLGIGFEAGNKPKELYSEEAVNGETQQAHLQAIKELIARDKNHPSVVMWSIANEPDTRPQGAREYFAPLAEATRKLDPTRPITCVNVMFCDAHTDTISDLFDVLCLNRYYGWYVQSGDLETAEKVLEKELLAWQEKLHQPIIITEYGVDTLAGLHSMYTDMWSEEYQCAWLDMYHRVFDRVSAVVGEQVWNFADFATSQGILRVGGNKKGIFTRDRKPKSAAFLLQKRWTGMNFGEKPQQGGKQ
Sequence of Beta-glucuronidase (Escherichia coli (strain K12)) (P05804 whole entry, looked up): as the sequence (P05804 whole entry) above
T4 sequence (P23739 1-1013 limits assumed): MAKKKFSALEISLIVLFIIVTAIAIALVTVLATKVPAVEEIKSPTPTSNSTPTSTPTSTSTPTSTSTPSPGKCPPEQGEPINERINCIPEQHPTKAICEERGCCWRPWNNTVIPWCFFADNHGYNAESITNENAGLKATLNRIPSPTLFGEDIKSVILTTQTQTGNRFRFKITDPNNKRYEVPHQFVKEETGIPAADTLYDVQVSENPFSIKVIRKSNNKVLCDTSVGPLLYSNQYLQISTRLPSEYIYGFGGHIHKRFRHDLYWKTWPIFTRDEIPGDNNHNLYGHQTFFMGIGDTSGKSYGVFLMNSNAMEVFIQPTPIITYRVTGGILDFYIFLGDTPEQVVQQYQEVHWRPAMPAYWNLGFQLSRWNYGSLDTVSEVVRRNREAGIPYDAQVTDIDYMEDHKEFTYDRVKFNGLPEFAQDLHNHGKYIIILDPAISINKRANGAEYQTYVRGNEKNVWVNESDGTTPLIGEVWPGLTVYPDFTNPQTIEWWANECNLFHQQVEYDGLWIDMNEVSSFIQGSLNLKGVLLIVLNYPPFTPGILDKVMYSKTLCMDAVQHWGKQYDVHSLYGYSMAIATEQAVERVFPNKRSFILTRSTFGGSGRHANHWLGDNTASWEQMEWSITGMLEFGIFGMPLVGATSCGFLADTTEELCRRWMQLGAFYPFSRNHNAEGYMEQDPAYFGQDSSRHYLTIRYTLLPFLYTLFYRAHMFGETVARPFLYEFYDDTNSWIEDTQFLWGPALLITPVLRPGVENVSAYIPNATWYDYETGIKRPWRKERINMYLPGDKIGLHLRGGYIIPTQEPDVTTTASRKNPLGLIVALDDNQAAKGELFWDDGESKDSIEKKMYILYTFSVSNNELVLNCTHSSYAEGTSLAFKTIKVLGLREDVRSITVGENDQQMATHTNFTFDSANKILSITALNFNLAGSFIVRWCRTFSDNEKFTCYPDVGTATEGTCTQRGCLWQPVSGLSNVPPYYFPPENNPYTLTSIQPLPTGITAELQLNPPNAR
T4 sequence (P23739 1014-1841 limits assumed): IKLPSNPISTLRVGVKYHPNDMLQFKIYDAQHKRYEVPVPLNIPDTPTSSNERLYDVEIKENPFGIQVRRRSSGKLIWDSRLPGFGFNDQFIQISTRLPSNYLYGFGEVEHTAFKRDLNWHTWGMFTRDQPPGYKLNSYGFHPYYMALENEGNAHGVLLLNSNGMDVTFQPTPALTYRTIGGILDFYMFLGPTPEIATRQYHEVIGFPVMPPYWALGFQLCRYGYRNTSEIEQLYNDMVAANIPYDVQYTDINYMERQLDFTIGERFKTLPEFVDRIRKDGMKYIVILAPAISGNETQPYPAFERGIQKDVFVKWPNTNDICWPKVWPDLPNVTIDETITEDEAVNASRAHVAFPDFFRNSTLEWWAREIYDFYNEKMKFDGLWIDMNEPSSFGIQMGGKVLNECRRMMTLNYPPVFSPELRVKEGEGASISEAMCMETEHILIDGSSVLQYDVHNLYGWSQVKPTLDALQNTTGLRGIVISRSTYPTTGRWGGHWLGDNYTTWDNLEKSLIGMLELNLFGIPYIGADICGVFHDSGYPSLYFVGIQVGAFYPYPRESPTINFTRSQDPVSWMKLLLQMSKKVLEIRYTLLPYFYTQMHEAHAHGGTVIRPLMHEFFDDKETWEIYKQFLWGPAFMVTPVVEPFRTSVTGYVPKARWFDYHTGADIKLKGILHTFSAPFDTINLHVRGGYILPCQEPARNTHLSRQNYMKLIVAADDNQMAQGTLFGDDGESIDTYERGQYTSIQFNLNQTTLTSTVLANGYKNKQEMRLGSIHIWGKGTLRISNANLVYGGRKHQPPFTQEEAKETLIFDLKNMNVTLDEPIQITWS
Sequence of Alpha-galactosidase (Q42656 whole entry): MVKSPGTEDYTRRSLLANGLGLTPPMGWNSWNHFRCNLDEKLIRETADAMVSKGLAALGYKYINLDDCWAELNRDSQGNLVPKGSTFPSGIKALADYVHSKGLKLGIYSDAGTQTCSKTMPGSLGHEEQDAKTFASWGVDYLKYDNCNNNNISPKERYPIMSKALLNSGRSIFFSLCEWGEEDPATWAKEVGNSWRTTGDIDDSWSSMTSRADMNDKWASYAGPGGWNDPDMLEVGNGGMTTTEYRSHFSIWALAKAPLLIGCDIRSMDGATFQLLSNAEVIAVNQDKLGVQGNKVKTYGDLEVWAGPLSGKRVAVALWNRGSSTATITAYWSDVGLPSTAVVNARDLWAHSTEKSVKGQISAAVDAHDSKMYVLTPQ
Sequence of Alpha-galactosidase (Coffea arabica) (Q42656 16-378 limits assumed): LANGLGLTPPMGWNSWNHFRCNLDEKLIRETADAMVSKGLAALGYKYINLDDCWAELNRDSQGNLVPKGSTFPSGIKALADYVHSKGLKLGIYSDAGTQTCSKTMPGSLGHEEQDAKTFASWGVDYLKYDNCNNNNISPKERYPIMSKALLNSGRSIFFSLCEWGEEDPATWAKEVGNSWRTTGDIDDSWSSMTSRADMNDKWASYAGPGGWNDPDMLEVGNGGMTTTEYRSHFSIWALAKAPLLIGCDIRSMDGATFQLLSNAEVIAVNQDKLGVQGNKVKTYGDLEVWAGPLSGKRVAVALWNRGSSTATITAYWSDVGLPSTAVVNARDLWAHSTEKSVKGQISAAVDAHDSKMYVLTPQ

Row | Structure (SMILES) | IC50 [1] | inhibition [2] [%] | IC50 [3] | inhibition [5] [%] | IC50 [6] | IC50 [8] | inhibition [9] [%] | IC50 [10] [nM] | inhibition [11] [%] | inhibition [12] [%] | IC50 [13] | inhibition [14] [%] | inhibition [16] [%] | inhibition [17] [%] | IC50 [18] [nM] | IC50 [19] | IC50 [21] | IC50 [22] [nM] | IC50 [23] | further results
1 | OC[C@H]1NC[C@H](O)[C@@H](O)[C@@H]1O [DUVOGLUSTAT] | Not Active | 12.1 | Not Active | 1 | Not Active | Not Active | 0 | 440 | 4.6 | 45.6 | Not Active | 0.8 | 4.8 | 17.4 | 120 | Not Active | Not Active | 48000 | Not Active | IC50 [4]: 270 nM; IC50 [7]: Not Active; inhibition [15]: 13.7%; IC50 ([20]; read-out: IC50): 763000 nM
2 | C[C@]1(CO)NC[C@H](O)[C@@H](O)[C@@H]1O.Cl | Not Active | 6.7 | Not Active | 0 | Not Active | Not Active | 11.9 | 15.5 | 9.5 | 2.4 | Not Active | 0 | 2 | 2.1 | 53 | Not Active | Not Active | 42000 | Not Active | IC50 [24]: 960 nM; inhibition [25]: 8%; IC50 ([7]; read-out: IC50): 7500 nM; IC50 [20]: Not Active; IC50 [26]: 1000 nM; IC50 [27]: 200 nM
